# Measurements published in patent publication US6653442B1, “Protegrins” (priority 1993, dated 2003).
# Bridge positions count the residues as written; N and C are the ends. Peptide text beside a SMILES is read from it.
# Tests used:
# E. coli ML-35P = test: Radial diffusion assay in agarose gels, E. coli; format: cell-based; details: for activity against E. coli in NaCl (FIG. 5b): in the presence of 100 mM NaCl; for antibacterial activity against E. coli (FIG. 4a): radial diffusion, underlay agar pH 6.5
# [1] = test system: Listeria monocytogenes, strain EGD; test: Radial diffusion assay in agarose gels, L. monocytogenes; format: cell-based; details: for antibacterial activity against Listeria monocytogenes (FIG. 4b): radial diffusion, underlay agar pH 6.5
# Method: Aliquots (66 μl) of each fraction were dried by vacuum centrifugation and resuspended in 6.6 μl of 0.01% acetic acid. Five μl samples of this concentrate were tested for antimicrobial activity against E. coliML-3, L. monocytogenes, strain EGD and C. albicans, strain 820, using radiodiffusion and gel overlay techniques as described by Lehrer, R. I. et al. J Immunol Meth (1991) 137:167-173. […] The units of activity in the radial diffusion assay were measured as described; 10 units correspond to a 1 mm diameter clear zone around the sample well. Activity was found in a large number of fractions.
# The radial diffusion assay in agarose gels described in Example 1 was also used to test the activity of the purified protegrins. FIGS. 4a, 4b and 4c show the results against three test organisms in units described as above.
# The antimicrobial activity of the linearalized forms was also compared with that of the native protegrins. Both linearalized and cyclic forms of the protegrins tested continue to show antimicrobial activity, although the effectiveness of these peptides as antimicrobials depends on the nature of the target organism and on the test conditions. The antimicrobial activity of native PG-1 and its linearalized form (cam-PG-1) and PG-3 and its linearalized form (cam-PG-3) were tested according to the procedure set forth in Example 1 as described by Lehrer, R. I. et al. J Immunol Meth (1991) 137:167-173.
# Using standard solid phase techniques, a protegrin having the amino acid sequence of PG-1, but wherein every amino acid is in the D form was prepared. This form of protegrin was tested against E. coli, L. monocytogenes, C. albicans and other microbes in the absence and presence of protease and otherwise as described for the radiodiffusion assay in agarose gels set forth in Example 1.
# The kite and bullet PG-1 compounds prepared in Example 12 were tested for antimicrobial activity using the radial diffusion assay described in Example 1 as published by Lehrer, R. I. et al., J Immunol Meth (1991) 137:167-173, except that the underlay agars contained […] sodium phosphate buffer with a final pH of 7.4. As described in Example 1, 0.3 mg/ml tripticase soy broth powder and 1% agarose were used as well in the underlay agar. In some cases 100 mM NaCl or RPMI plus 2.5% normal human serum (NHS) was added to the agar.
# C. albicans, strain 820 = format: cell-based, Candida albicans; details: for activity against C. albicans in NaCl (FIG. 5a): in the presence of 100 mM NaCl; for antifungal activity against Candida albicans (FIG. 4c): radial diffusion, underlay agar pH 6.5
# Method: Similarly, using C. albicans as a target organism, underlayers were prepared with 10 mM sodium phosphate with and without 10% normal human serum.
# human leukocyte elastase = human leukocyte elastase (Homo sapiens, UniProt P08246); format: in vitro ADME; details: pH 7
# [2] = biological target: human leukocyte cathepsin G (Homo sapiens, UniProt P08311); format: in vitro ADME; details: pH 7
# [3] = test system: lipid polysaccharide (LPS) of E. coli strain 0.55B5; test: Limulus amebocyte lysate (LAL) test for endotoxin binding; format: biochemical; details: for gel formation in LAL test: LPS 0.05 endotoxin unit/ml
# Candida albicans = test: Radial diffusion assay in 25 mM borate buffer, Candida albicans; format: cell-based; details: listed as nPG-3
# L. monocytogenes = test: Radial diffusion assay in 25 mM borate buffer, L. monocytogenes; format: cell-based; details: listed as nPG-3
# E. coli = test: Antimicrobial activity with and without lysozyme in borate buffered saline; format: cell-based; details: presence vs absence of lysozyme
# Text: This effect was more pronounced when the PG-3 was autoclaved and similar patterns were obtained for both the free-acid form and the amide. Accordingly, the protegrins may be used as preservatives in such compositions or as antimicrobials for treatment of eye infections.
# pepsin = details: 4 hours at pH 2.0 with 0.5 μg/ml pepsin, then neutralized
# [4] = test system: Trichomonas vaginallis strain C1 (ATCC 30001); strains MR and TV; test: Trichomonas vaginallis exposure assay
# Staphylococcus aureus = test: Radial diffusion assay in agarose gels, S. aureus; format: cell-based
# K. pneumoneae 270 = test: Radial diffusion assay in agarose gels, K. pneumoniae; format: cell-based
# T. pallidum = test: Treponema pallidum immobilization assay; format: cell-based
# Method: Bacteriocidal activity against this organism, which is the etiologic agent of syphilis, was also tested. Peptides were evaluated at a series of concentrations of 1.758 μg to 56.25 μg in 90 μl of unheated normal rabbit serum. The serum served as a nutrient for the spirochetes to allow their survival during incubation as well as providing a source of complement. Ten μl of a suspension of T. pallidum containing about 5×10^7/μl organisms was added to each tube and the mixtures with the appropriate peptides were incubated at 34° C. under 95 k N2 and 5% CO2. At time zero, just prior to incubation, 4 hours and 16 hours, 25 randomly selected organisms were examined for the presence or absence of motility. The 50 k immobilizing end point (IE50) was calculated to indicate the concentration needed to immobilize 50% of the spirochetes.
# [5] = test system: N. gonorrhoeae strains FA 19 and F 62
# Method: Nonpiliated transparent variants of strains FA 19 and F 62 were propagated on GCB agar plates containing glucose and iron supplements overnight at 37° C. under 3.8% V/V CO2. These strains were chosen for their adaptability to the assay.
# The overnight growth is removed from the agar plate and suspended in GCB broth containing supplements and sodium bicarbonate and grown with shaking at 37° C. to mid log phase. The culture is diluted 1:100 in GCB broth to give about 10^6 CFU/ml and serial dilutions were plated onto GCB agar.
# Ten μl of each dilution is added to a sterile polystyrene tube containing 90 μl of diluted bacteria and the tubes are shaken at 37° C. for 45 minutes. The contents are serially diluted 1:10 and plated on to GCB agar plates which are incubated in a CO2 incubator. CFU are counted after 24 hours and the log bactericidal activity calculated.
# HIVJR-CSF and HIVJR-FL = test: HIV infection of human peripheral blood mononuclear cells, p24 antigen
# Method: Briefly, the mononuclear cell fraction is recovered from normal donor leukopacs from the American Red Cross using a Ficoll-hypaque density gradient. The mononuclear cells are resuspended at 1×10^6 cells per ml in RPMI 1640 medium with 20% fetal bovine serum, 1% penn/strep with fungizone and 0.5% PHA and incubated 24 hours at 37° C. in 5% CO2. The cells are centrifuged, washed and then expanded for 24 hours in growth medium.
# Non-laboratory adapted, cloned HIVJR-CSF and HIVJR-FL were electroporated into the human peripheral blood mononuclear cells prepared as described above. Titers were determined and in general, multiplicities of infection (MOI) of about 4,000 infectious units per cell are used (which corresponds to 25-40 picograms per ml HIV p24 antigen in the supernatant).
# In the assay, the HIV stocks prepared as above were diluted to the correct MOI and the PBM are added to 24 well plates at a concentration of 2×10^6 per ml. One μl total volume is added to each well. The peptide to be tested is added in growth medium to achieve the final desired concentration. Then the appropriate number of MOI are added. To assay viral growth, 200 μl of supernatant is removed on days 3 and 7 and the concentration of p24 antigen is determined using a commercial assay (Coulter Immunology, Hialeah, Fla.). Controls include duplicate wells containing cells alone, cells plus peptide at 5 μg/ml cells with virus but not peptide and cells with virus in the presence of AZT at 10^−5 M-10^−8 M.
# human leukocyte elastase, sequence (P08246 30-267): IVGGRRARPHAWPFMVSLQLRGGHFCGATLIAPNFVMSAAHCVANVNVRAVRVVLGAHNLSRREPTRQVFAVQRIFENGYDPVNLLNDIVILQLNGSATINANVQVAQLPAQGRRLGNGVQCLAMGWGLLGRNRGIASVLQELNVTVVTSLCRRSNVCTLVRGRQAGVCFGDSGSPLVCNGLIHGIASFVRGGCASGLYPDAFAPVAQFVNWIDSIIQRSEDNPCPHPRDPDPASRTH
# human leukocyte cathepsin G, sequence (P08311 21-244): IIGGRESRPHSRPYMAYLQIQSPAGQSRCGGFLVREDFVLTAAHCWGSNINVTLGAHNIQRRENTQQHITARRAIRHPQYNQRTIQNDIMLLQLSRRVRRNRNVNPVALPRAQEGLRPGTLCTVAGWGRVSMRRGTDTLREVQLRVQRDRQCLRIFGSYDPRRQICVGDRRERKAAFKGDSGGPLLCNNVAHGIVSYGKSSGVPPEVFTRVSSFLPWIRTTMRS
compound,measurement,setting,value
"CC(C)C[C@H](NC(=O)CNC(=O)CNC(=O)CNC(=O)[C@@H](N)CCCNC(=N)N)C(=O)N[C@H]1CSSC[C@@H](C(=O)N[C@H](C(=O)NCC(=O)N[C@@H](CCCNC(=N)N)C(N)=O)C(C)C)NC(=O)[C@H](C(C)C)NC(=O)[C@@H]2CSSC[C@H](NC(=O)[C@H](Cc3ccc(O)cc3)NC1=O)C(=O)N[C@@H](CCCNC(=N)N)C(=O)N[C@@H](CCCNC(=N)N)C(=O)N[C@@H](CCCNC(=N)N)C(=O)N[C@@H](Cc1ccccc1)C(=O)N2 [PG-3, R-G-G-G-L-C-Y-C-R-R-R-F-C-V-C-V-G-R] (H-RGGGLCYCRRRFCVCVGR-NH2; disulfide 6-15, 8-13; N-terminus assumed)",activity against E. coli in NaCl (FIG. 5b),E. coli ML-35P,retain their activity
same,antibacterial activity against E. coli (FIG. 4a),E. coli ML-35P,more effective against E. coli ML-35P than HNP-1 and only slightly less effective than NP-1
same,antibacterial activity against Listeria monocytogenes (FIG. 4b),[1],effective
same,activity against Candida albicans in fetal calf serum (FIG. 5c),"C. albicans, strain 820; 90% fetal calf serum",retained
same,activity against C. albicans in NaCl (FIG. 5a),"C. albicans, strain 820",retain their activity
same,antifungal activity against Candida albicans (FIG. 4c),"C. albicans, strain 820",effective
same,degradation by human leukocyte elastase,human leukocyte elastase,not degraded
same,degradation by human leukocyte cathepsin G,[2],not degraded
same,"gel formation in LAL test, cyclic vs linearalized (Table 3)",[3]; 2.5 μg peptide,no gel
same,gel formation in LAL test,"[3]; 2.5 μg peptide in 0.2 ml, listed as nPG-3",trace
same,"gel formation in LAL test, cyclic vs linearalized (Table 3)",[3]; 5 μg peptide,no gel
same,gel formation in LAL test,[3]; 5 μg peptide in 0.2 ml,no gel
same,gel formation in LAL test,[3]; 10 μg peptide in 0.2 ml,no gel
same,ESTIMATED MINIMAL FUNGICIDAL CONCENTRATIONS,Candida albicans; 25 mM borate buffer,32.0 µg/mL
same,ESTIMATED MINIMAL FUNGICIDAL CONCENTRATIONS,Candida albicans; borate buffer + 120 mM NaCl,9.0 µg/mL
same,ESTIMATED MINIMAL FUNGICIDAL CONCENTRATIONS,Candida albicans; borate buffer + EDTA & NaCl,8.0 µg/mL
same,ESTIMATED MINIMAL BACTERICIDAL CONCENTRATIONS,L. monocytogenes; 25 mM borate buffer,25.0 µg/mL
same,ESTIMATED MINIMAL BACTERICIDAL CONCENTRATIONS,L. monocytogenes; borate buffer + 120 mM NaCl,7.0 µg/mL
same,ESTIMATED MINIMAL BACTERICIDAL CONCENTRATIONS,L. monocytogenes; borate buffer + EDTA & NaCl,5.7 µg/mL
same,effect of lysozyme on effectiveness against E. coli,E. coli,enhanced the effectiveness
same,"residual antimicrobial activity against C. albicans, E. coli and L. monocytogenes after pepsin",pepsin,fully retained
same,motility of T. vaginallis,[4]; 25 μg/ml,retained their motility
"CC(C)C[C@H](NC(=O)[C@H](CCCNC(=N)N)NC(=O)CNC(=O)CNC(=O)[C@@H](N)CCCNC(=N)N)C(=O)N[C@H]1CSSC[C@@H](C(=O)N[C@H](C(=O)NCC(=O)N[C@@H](CCCNC(=N)N)C(N)=O)C(C)C)NC(=O)[C@H](C(C)C)NC(=O)[C@@H]2CSSC[C@H](NC(=O)[C@H](Cc3ccc(O)cc3)NC1=O)C(=O)N[C@@H](CCCNC(=N)N)C(=O)N[C@@H](CCCNC(=N)N)C(=O)N[C@@H](CCCNC(=N)N)C(=O)N[C@@H](Cc1ccccc1)C(=O)N2 [PG-1, R-G-G-R-L-C-Y-C-R-R-R-F-C-V-C-V-G-R]",inhibition of growth of E. coli (FIG. 12a),E. coli ML-35P; absence of protease,equally effective
same,activity against E. coli in NaCl (FIG. 5b),E. coli ML-35P,retain their activity
same,antibacterial activity against E. coli (FIG. 4a),E. coli ML-35P,more effective against E. coli ML-35P than HNP-1 and only slightly less effective than NP-1
same,inhibition of growth of L. monocytogenes (FIG. 12d),[1]; absence of proteases,comparably active
same,inhibition of growth of L. monocytogenes (FIG. 12c),"[1]; presence of trypsin, chymotrypsin",adversely affected
same,antibacterial activity against Listeria monocytogenes (FIG. 4b),[1],effective
same,activity against C. albicans in NaCl (FIG. 5a),"C. albicans, strain 820",retain their activity
same,antifungal activity against Candida albicans (FIG. 4c),"C. albicans, strain 820",effective
same,antibacterial activity against S. aureus (FIG. 4d),Staphylococcus aureus,inhibit the growth
same,antibacterial activity against K. pneumoneae (FIG. 4e),K. pneumoneae 270,inhibit the growth
same,degradation by human leukocyte elastase,human leukocyte elastase,not degraded
same,degradation by human leukocyte cathepsin G,[2],not degraded
same,gel formation in LAL test,[3]; 1.0 μg peptide in 0.2 ml,no gel
same,"gel formation in LAL test, cyclic vs linearalized (Table 3)",[3]; 2.5 μg peptide,no gel
same,gel formation in LAL test,[3]; 2.5 μg peptide in 0.2 ml,no gel
same,"gel formation in LAL test, cyclic vs linearalized (Table 3)",[3]; 5 μg peptide,no gel
same,gel formation in LAL test,[3]; 5 μg peptide in 0.2 ml,no gel
same,gel formation in LAL test,[3]; 10 μg peptide in 0.2 ml,no gel
same,Activity against human STD pathogens: Treponema pallidum,T. pallidum,Active
same,"residual antimicrobial activity against C. albicans, E. coli and L. monocytogenes after pepsin",pepsin,fully retained
same,Activity against human STD pathogens: Neisseria gonorrhoeae,[5],Active
same,Activity against human STD pathogens: Trichomonas vaginalis,[4],Moderately
same,growth in Diamond's medium after exposure,"[4]; strain C1, 50 μg/ml",failed to grow
same,motility of T. vaginallis,"[4]; strain C1, 50 μg/ml, RPMI+1% fetal calf serum, within a few minutes",became stationary
same,lysis of T. vaginallis,"[4]; strain C1, 50 μg/ml, over the ensuing 15-30 minutes",lysed
same,susceptibility of metronidazole-resistant clinical isolates,"[4]; strains MR and TV, 100 and 50 μg/ml",susceptible
same,Activity against human STD pathogens: HIV-1,HIVJR-CSF and HIVJR-FL,Active
same,antiviral activity by time of addition,"HIVJR-CSF and HIVJR-FL; 2 hours prior to virus, at the time of virus, or 2 hours after infection",showed antiviral activity
same,antiviral activity by time of addition,HIVJR-CSF and HIVJR-FL; added 24 hours after infection,no antiviral activity
